Test results reported in patent EP4741383A1, “COMPOUND AND USE THEREOF AS ANTI-CANCER DRUG” (Tyligand Bioscience (Shanghai) Limited, priority 2023, dated 2025).

Assays:
KP-4 = experiment: CellTiter-Glo cell proliferation inhibition, KP-4; assay type: cell-based; conditions: Homo sapiens; KP-4 (pancreatic cancer cell line), 72 hours; read-out: Example IC50 (µM) KP-4
Excerpt: (§1) This experiment used the CellTiter-Glo® Luminescent Cell Viability Assay kit from Promega to evaluate the inhibitory activity of the disclosed compounds on the proliferation of the following cell lines: 4T1 (mouse breast cancer cell line), A20 (mouse B-cell lymphoma cell line), A2780 (human ovarian cancer cell line), AsPC-1 (pancreatic cancer cell line), B16F10 (mouse melanoma cell line), BT549 (human breast cancer cell line), CT26 (mouse colon cancer cell line), EMT6 (mouse breast cancer cell line), HCT116 (colorectal cancer cell line), Jurket (acute leukemia cell line), KP-4 (pancreatic cancer cell line), LL/2 (mouse lung cancer cell line), MCF7 (breast cancer cell line), […] NCI-H358 (lung cancer cell line), NCI-H727 (gastric cancer cell line), NCI-1944 (lung cancer cell line), Pan 04.03 (pancreatic cancer cell line), SK-BR-3 (breast cancer cell line), THP-1 (leukemia cell line), TOV21G (ovarian cancer cell line), U87MG (glioblastoma cell line), and UM-UC-a (bladder cancer cell line). […]
(§2) Cells were cultured according to the instructions provided by the cell supplier (Nanjing Kebai Biotechnology Co., Ltd.). […] Suspension or adherent cells were collected, and cell viability was determined using the trypan blue exclusion method, ensuring that cell viability was above 90%. […]

A2780 = experiment: CellTiter-Glo cell proliferation inhibition, A2780; assay type: cell-based; conditions: A2780 (human ovarian cancer cell line), 72 hours; read-out: Example IC50 (µM) A2780
Excerpt: as §1, §2

NCI-1944 = experiment: CellTiter-Glo cell proliferation inhibition, NCI-1944; assay type: cell-based; conditions: NCI-1944 (lung cancer cell line), 72 hours; read-out: Example IC50 (µM) NCI-1944
Excerpt: as §1, §2

EMT6 = experiment: CellTiter-Glo cell proliferation inhibition, EMT6; assay type: cell-based; conditions: EMT6 (mouse breast cancer cell line), 72 hours; read-out: Example IC50 (µM) EMT6
Excerpt: as §1, §2

[1] = J. Med. Chem. 2014, 57, 6594-6609; read-out: cellular activity IC50; cited from earlier work
SHP2 = SHP2 (Homo sapiens, UniProt Q06124); conditions: J. Med. Chem. 2014, 57, 6594-6609; read-out: enzyme activity IC50; cited from earlier work
Chain of SHP2 (Q06124 whole entry): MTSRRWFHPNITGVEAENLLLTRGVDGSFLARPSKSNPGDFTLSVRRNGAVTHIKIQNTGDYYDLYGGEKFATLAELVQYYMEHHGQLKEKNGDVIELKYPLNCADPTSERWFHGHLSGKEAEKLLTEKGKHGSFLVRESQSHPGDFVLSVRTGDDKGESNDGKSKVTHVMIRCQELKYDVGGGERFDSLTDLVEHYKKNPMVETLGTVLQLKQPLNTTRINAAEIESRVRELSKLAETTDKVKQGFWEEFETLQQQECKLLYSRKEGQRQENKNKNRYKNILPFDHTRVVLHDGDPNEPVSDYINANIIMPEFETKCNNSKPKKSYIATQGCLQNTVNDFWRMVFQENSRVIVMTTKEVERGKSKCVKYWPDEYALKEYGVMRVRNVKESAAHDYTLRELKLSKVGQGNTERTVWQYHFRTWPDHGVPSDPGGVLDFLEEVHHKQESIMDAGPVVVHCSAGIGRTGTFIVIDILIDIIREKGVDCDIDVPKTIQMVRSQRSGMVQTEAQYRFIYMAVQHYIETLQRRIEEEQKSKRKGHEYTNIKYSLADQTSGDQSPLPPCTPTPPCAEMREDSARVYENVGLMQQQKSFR

Row | Compound | IC50 (KP-4) | IC50 (A2780) | IC50 (NCI-1944) | IC50 (EMT6) | IC50 [1] | IC50 (SHP2)
1 | O=C(Nc1ccc(-c2csc(CO)c2)cc1)C(=O)Nc1ccc(-c2cc3cc(F)c(-c4nnn[nH]4)cc3n2C2CCC2)cc1 [Example 1] | 0.228 µM | 0.128 µM | 0.112 µM | 0.131 µM | – | –
2 | Cn1c(-c2cccc(NC(=O)C(=O)Nc3ccc(-c4ccsc4)cc3)c2)c(I)c2cc(C(=O)O)c(O)cc21 [Example 11a-1, reference compound] | – | – | – | – | ≥ 1000 nM | ~200 nM
